Reference: US10993935B2, “Compositions and methods for treatment of lung infections” (priority 2018, dated 2021)
≈ marks a conversion by molar mass, not a printed value. Read-outs that look alike come from different tables or passages of the source.

Columns and labels:
[1] = test system: P. aeruginosa PAO581 (PAO1mucA25); assay: NIH drug library screen for inhibition of growth, mucoidy and PalgD-lacZ colour; type: cell-based, Pseudomonas aeruginosa
P. aeruginosa strains = assay: MIC and synergy testing (checkerboard/isobologram) of RFX and TOB; type: cell-based, Pseudomonas aeruginosa; conditions: strain CF003, NM
Staphylococcus aureus = assay: RFX MIC testing against MDR clinical isolates; type: cell-based
Procedure: (§1) Minimum Inhibitory Concentration Testing. MIC testing was performed as previously described. Briefly, overnight culture of bacteria was diluted in 1:100 of a 0.5 McFarland standard as inoculum. The same number of cells was grown in LB broth containing serial, two-fold dilutions of rifaximin (RFX) or tobramycin (TOB). Growth was measured via optical density (OD) at 600 nm after 24 h incubation at 37° C. Concentrations of antibiotic required for inhibition of 50% and 90% of strains were determined.
(§2) Because RFX was not a traditional treatment for P. aeruginosa infections, it was first tested whether RFX was effective in vitro against P. aeruginosa and other bacterial pathogens seen in CF. Since RFX is not used for treatment of ventilator-associated pneumonia (VAP), it was thought the isolates of tracheal aspirates from VAP patients in the ICU may be sensitive to RFX. To determine the susceptibility to RFX, resistant isolates from the Cabell Huntington Hospital were chosen to measure the minimum inhibitory concentrations (MIC) for RFX (Table 3).
(§3) MIC50 and MIC90 are the concentrations of RFX required for the growth inhibition of 50% and 90% of strains, respectively.

Burkholderia cepacia = assay: RFX MIC testing against MDR clinical isolates; type: cell-based
Procedure: as §1, §2, §3

Acinetobacter baumannii = assay: RFX MIC testing against MDR clinical isolates; type: cell-based
Procedure: as §1, §2, §3

[2] = test system: Stenotrophomonas maltophilia; assay: RFX MIC testing against MDR clinical isolates; type: cell-based
Procedure: as §1, §2, §3

Pseudomonas aeruginosa = assay: RFX MIC testing against MDR clinical isolates; type: cell-based
Procedure: as §1, §2, §3

[3] = Solubility of RFX in nebulization solvents; type: physicochemical
Procedure: As treatment for traveler's diarrhea, RFX is a drug optimized for oral use. For RFX to be useful as a treatment for CF patients, it was determined whether RFX could be delivered to the lungs through nebulization. Nebulizing RFX was initially unsuccessful and more difficult than presumed. […] RFX was not soluble in water-based solutions, but was soluble in dimethyl-sulfoxide (DMSO) and ETOH (ethanol) in small volumes. […] However, 100% DMSO could be used to retain RFX in solution and deliver to the lungs as noted by HPLC data.

[4] = Adverse effects after nebulization in mice; type: in vivo, C57BL/6 mice; conditions: mouse, in vivo
Procedure: Drug Nebulization. C57BL/6 mice (n=8) were first exposed to 5 mL DMSO for 10 minutes to determine any adverse effects that may occur from using DMSO. Mice (n=16) were then exposed to TOB in 0.225% saline or RFX in DMSO via nebulization until the 5 mL drug mixture was depleted—typically 10-15 minutes. Nebulization was conducted using the pressure-based nebulizer and chamber purchased from Kent Scientific (Torrington, Conn.). TOB was nebulized at concentrations of 100 mg (n=4) or 400 mg (n=4) in 5 mL of 0.225% saline. RFX was nebulized at concentrations of 100 mg (n=4) or 400 mg (n=4) in 5 ml of 100% dimethyl sulfoxide. Mice were sacrificed immediately after nebulization via CO2 chamber. Lungs were then collected and homogenized. TOB concentrations were measured using ELISA. RFX concentrations were measured via HPLC.
The potential adverse effects of using DMSO were first assessed by nebulizing DMSO alone to a group of C57BL/6 mice (n=8). This type of mice was used due to their natural resistance against infection based on our previous studies. […] To determine the dosage of each drug received by the mice, the lungs were homogenized and drug concentrations of TOB and RFX were determined via ELISA and HPLC, respectively. […] The droplet size for both TOB and RFX were determined to be identical with the average droplet size for TOB and RFX being 5.07 μm and 5.02 μm, respectively. […]

[5] = Stenotrophomonas maltophilia, 1 strain

CO[C@H]1/C=C/O[C@@]2(C)Oc3c(C)c(O)c4c(O)c(c5c(nc6cc(C)ccn65)c4c3C2=O)NC(=O)/C(C)=C\C=C\[C@H](C)[C@H](O)[C@@H](C)[C@@H](O)[C@@H](C)[C@H](OC(C)=O)[C@@H]1C [RFX, rifaximin]
Growth 2 μM ([1]; drug at 2 μM, PAO581 on PIA): Reduced | Mucoidy 2 μM ([1]; drug at 2 μM, PAO581 with pLP170-PalgD-lacZ on PIA + X-gal): Reduced | Color 2 μM ([1]; drug at 2 μM, X-gal colour of PalgD-lacZ reporter, 'Light' wraps to 'Light Blue'): Clear | Growth 10 μM ([1]; drug at 10 μM, PAO581 on PIA): Inhibited | Growth 50 μM ([1]; drug at 50 μM, PAO581 on PIA): Inhibited | FIC RFX (P. aeruginosa strains): 0.25 | MIC RFX in Combination (P. aeruginosa strains; in combination with TOB): 1 | MIC50 (Staphylococcus aureus; 22 strains, concentration inhibiting growth of 50% of strains): 2 µg/mL (≈ 2.54 µM) | MIC90 (Staphylococcus aureus; 22 strains, concentration inhibiting growth of 90% of strains): 16 µg/mL (≈ 20.4 µM) | MIC50 (Staphylococcus aureus; MDR S. aureus including MRSA): 2 µg/mL (≈ 2.54 µM) | MIC90 (Staphylococcus aureus; MDR S. aureus including MRSA): 16 µg/mL (≈ 20.4 µM) | MIC50 (Burkholderia cepacia; Burkholderia cepacia, 4 strains, concentration inhibiting growth of 50% of strains): 16 µg/mL (≈ 20.4 µM) | MIC90 (Burkholderia cepacia; Burkholderia cepacia, 4 strains, concentration inhibiting growth of 90% of strains): 32 µg/mL (≈ 40.7 µM) | growth of clinical isolates (Burkholderia cepacia; clinical isolates, in words): effectively inhibit the growth | MIC50 (Acinetobacter baumannii; Acinetobacter baumannii, 9 strains, concentration inhibiting growth of 50% of strains): < 0.5 µg/mL | MIC90 (Acinetobacter baumannii; Acinetobacter baumannii, 9 strains, concentration inhibiting growth of 90% of strains): < 0.5 µg/mL | growth of clinical isolates (Acinetobacter baumannii; clinical isolates, in words): effectively inhibit the growth | MIC50 [2, 5]: 16 µg/mL (≈ 20.4 µM) | MIC90 [2, 5]: 16 µg/mL (≈ 20.4 µM) | growth of clinical isolates ([2]; clinical isolates, in words): effectively inhibit the growth | MIC50 (Pseudomonas aeruginosa; 26 MDR clinical isolates, concentration inhibiting growth of 50% of strains): 8 µg/mL (≈ 10.2 µM) | MIC90 (Pseudomonas aeruginosa; 26 MDR clinical isolates, concentration inhibiting growth of 90% of strains): 16 µg/mL (≈ 20.4 µM) | MIC50 (Pseudomonas aeruginosa; Pseudomonas aeruginosa, MDR P. aeruginosa, read-out: MIC50): 8 µg/mL (≈ 10.2 µM) | MIC90 (Pseudomonas aeruginosa; Pseudomonas aeruginosa, MDR P. aeruginosa, read-out: MIC90): 16 µg/mL (≈ 20.4 µM) | solubility ([3]; in 20%, 40%, and 80% DMSO in PBS, came out of solution on nebulization): partially or fully dissolve | solubility ([3]; in DMSO): readily soluble | solubility ([3]; in PBS or saline): did not dissolve | solubility ([3]; in dimethyl-sulfoxide (DMSO) and ETOH (ethanol) in small volumes): soluble | solubility ([3]; in water): only sparingly soluble | solubility ([3]; in water-based solutions): not soluble | adverse effects [4]: no adverse effects
